{
  "source": "patent US8580832B2",
  "about": "“Substituted phenoxy aminothiazolones as estrogen related receptor-α modulators” (Janssen Pharmaceutica N.V., priority 2007, dated 2013)",
  "note": "pEC50: −log10 of the molar value. Counter-ions that a name gives are not always drawn.",
  "data": [
    {"biological_target": "T1, ERR1 (also known as ERR-α or ERR-1) (Homo sapiens, UniProt P11474)", "T1 construct": "the ^6His-tagged-ERR1 LBD", "T1 sequence (P11474 193-421 limits assumed)": "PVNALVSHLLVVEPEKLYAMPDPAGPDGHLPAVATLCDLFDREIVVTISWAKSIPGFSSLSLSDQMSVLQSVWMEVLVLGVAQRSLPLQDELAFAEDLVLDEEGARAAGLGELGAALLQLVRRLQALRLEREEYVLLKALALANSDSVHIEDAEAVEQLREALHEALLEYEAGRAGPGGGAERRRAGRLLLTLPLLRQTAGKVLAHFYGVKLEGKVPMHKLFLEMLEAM", "experiment": "TR-FRET assay: disruption of co-activator peptide binding to ERR1 LBD", "type": "biochemical", "settings": "6His-tagged ERR1 LBD 6 nM, GST-SRC-2 peptide 6 nM, 25° C., 4-18 hours; average of 3 independent experiments", "how_it_was_run": "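The 6His-ERR1 LBD and a GST-hSRC2 co-activator peptide were detected by α-GST Eu cryptate and α-6His-XL665 TR-FRET. Buffer was 25 mM Tris pH 8, 2.5 mM Hepes, 20 mM KCl, 1 mM DTT, 0.05 mg/mL BSA, equilibrated 4-18 h at 25° C. Dose-response curves were fitted hyperbolically and averaged over 3 independent experiments.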", "values": [
      {"smiles": "COc1cc(/C=C2\\SC(N(C)C)=NC2=O)ccc1Oc1ccc(C#N)cc1C(F)(F)F", "note": "[Example 81, 4-[4-(2-Dimethylamino-4-oxo-4H-thiazol-5-ylidenemethyl)-2-methoxy-phenoxy]-3-trifluoromethyl-benzonitrile]", "pEC50": 7.77},
      {"smiles": "COC(=O)CCCNC1=NC(=O)/C(=C/c2ccc(Oc3ccc(C#N)cc3C(F)(F)F)c(OC)c2)S1", "note": "[Example 82, 4-{5-[4-(4-Cyano-2-trifluoromethyl-phenoxy)-3-methoxy-benzylidene]-4-oxo-4,5-dihydro-thiazol-2-ylamino}-butyric acid methyl ester]", "pEC50": 7.26},
      {"smiles": "COC(=O)CC1CCN(C2=NC(=O)/C(=C/c3ccc(Oc4ccc(C#N)cc4C(F)(F)F)c(OC)c3)S2)CC1", "note": "[Example 83, (1-{5-[4-(4-Cyano-2-trifluoromethyl-phenoxy)-3-methoxy-benzylidene]-4-oxo-4,5-dihydro-thiazol-2-yl}-piperidin-4-yl)-acetic acid methyl ester]", "pEC50": 7.59},
      {"smiles": "COC(=O)CNC1=NC(=O)/C(=C/c2ccc(Oc3ccc(C#N)cc3C(F)(F)F)c(OC)c2)S1", "note": "[Example 84, {5-[4-(4-Cyano-2-trifluoromethyl-phenoxy)-3-methoxy-benzylidene]-4-oxo-4,5-dihydro-thiazol-2-ylamino}-acetic acid methyl ester]", "pEC50": 8.15},
      {"smiles": "COc1cc(/C=C2\\SC(NCc3cc(F)cc(F)c3)=NC2=O)ccc1Oc1ccc(C#N)cc1C(F)(F)F", "note": "[Example 85, 4-{4-[2-(3,5-Difluoro-benzylamino)-4-oxo-4H-thiazol-5-ylidenemethyl]-2-methoxy-phenoxy}-3-trifluoromethyl-benzonitrile]", "pEC50": 7.24},
      {"smiles": "COc1cc(/C=C2\\SC(N3CCC(N(C)C)CC3)=NC2=O)ccc1Oc1ccc(C#N)cc1C(F)(F)F", "note": "[Example 86, 4-{4-[2-(4-Dimethylamino-piperidin-1-yl)-4-oxo-4H-thiazol-5-ylidenemethyl]-2-methoxy-phenoxy}-3-trifluoromethyl-benzonitrile]", "pEC50": 8.00},
      {"smiles": "COc1cc(/C=C2\\SC(NCCN)=NC2=O)ccc1Oc1ccc(C#N)cc1C(F)(F)F", "note": "[Example 87, 4-{4-[2-(2-Amino-ethylamino)-4-oxo-4H-thiazol-5-ylidenemethyl]-2-methoxy-phenoxy}-3-trifluoromethyl-benzonitrile HCl salt]", "pEC50": 7.66},
      {"smiles": "COc1cc(/C=C2\\SC(NCc3ccoc3)=NC2=O)ccc1Oc1ccc(C#N)cc1C(F)(F)F", "note": "[Example 88, 4-(4-{2-[(Furan-3-ylmethyl)-amino]-4-oxo-4H-thiazol-5-ylidenemethyl}-2-methoxy-phenoxy)-3-trifluoromethyl-benzonitrile]", "pEC50": 7.82},
      {"smiles": "COc1cc(/C=C2\\SC(NCc3ccsc3)=NC2=O)ccc1Oc1ccc(C#N)cc1C(F)(F)F", "note": "[Example 89, 4-(2-Methoxy-4-{4-oxo-2-[(thiophen-3-ylmethyl)-amino]-4H-thiazol-5-ylidenemethyl}-phenoxy)-3-trifluoromethyl-benzonitrile]", "pEC50": 7.60},
      {"smiles": "COc1cc(/C=C2\\SC(N3CC[C@@H](F)C3)=NC2=O)ccc1Oc1ccc(C#N)cc1C(F)(F)F", "note": "[Example 90, 4-{4-[2-(3-Fluoro-pyrrolidin-1-yl)-4-oxo-4H-thiazol-5-ylidenemethyl]-2-methoxy-phenoxy}-3-trifluoromethyl-benzonitrile]", "pEC50": 7.89},
      {"smiles": "COc1cc(/C=C2\\SC(NCCF)=NC2=O)ccc1Oc1ccc(C#N)cc1C(F)(F)F", "note": "[Example 91, 4-{4-[2-(2-Fluoro-ethylamino)-4-oxo-4H-thiazol-5-ylidenemethyl]-2-methoxy-phenoxy}-3-trifluoromethyl-benzonitrile]", "pEC50": 8.05},
      {"smiles": "COc1cc(/C=C2\\SC(NCC(F)F)=NC2=O)ccc1Oc1ccc(C#N)cc1C(F)(F)F", "note": "[Example 92, 4-{4-[2-(2,2-Difluoro-ethylamino)-4-oxo-4H-thiazol-5-ylidenemethyl]-2-methoxy-phenoxy}-3-trifluoromethyl-benzonitrile]", "pEC50": 8.22},
      {"smiles": "COc1cc(/C=C2\\SC(N3CCN(C)C(=O)C3)=NC2=O)ccc1Oc1ccc(C#N)cc1C(F)(F)F", "note": "[Example 94, 4-{2-Methoxy-4-[2-(4-methyl-3-oxo-piperazin-1-yl)-4-oxo-4H-thiazol-5-ylidenemethyl]-phenoxy}-3-trifluoromethyl-benzonitrile]", "pEC50": 8.10},
      {"smiles": "COc1cc(/C=C2\\SC(NCC(O)CN)=NC2=O)ccc1Oc1ccc(C#N)cc1C(F)(F)F", "note": "(centres unmarked) [Example 95, 4-{4-[2-(3-Amino-2-hydroxy-propylamino)-4-oxo-4H-thiazol-5-ylidenemethyl]-2-methoxy-phenoxy}-3-trifluoromethyl-benzonitrile]", "pEC50": 7.05},
      {"smiles": "N#Cc1ccc(Oc2ccc(/C=C3\\SC(NCCF)=NC3=O)cc2F)c(C(F)(F)F)c1", "note": "[Example 96, 4-{2-Fluoro-4-[2-(2-fluoro-ethylamino)-4-oxo-4H-thiazol-5-ylidenemethyl]-2-fluoro-phenoxy}-3-trifluoromethyl-benzonitrile]", "pEC50": 7.60},
      {"smiles": "N#Cc1ccc(Oc2ccc(/C=C3\\SC(NCC(F)F)=NC3=O)cc2F)c(C(F)(F)F)c1", "note": "[Example 97, 4-{4-[2-(2,2-Difluoro-ethylamino)-4-oxo-4H-thiazol-5-ylidenemethyl]-2-fluoro-phenoxy}-3-trifluoromethyl-benzonitrile]", "pEC50": 7.40},
      {"smiles": "N#Cc1ccc(Oc2ccc(/C=C3\\SC(NCCn4cncn4)=NC3=O)cc2F)c(C(F)(F)F)c1", "note": "[Example 98, 4-{2-Fluoro-4-[4-oxo-2-(2-[1,2,4]triazol-1-yl-ethylamino)-4H-thiazol-5-ylidenemethyl]-phenoxy}-3-trifluoromethyl-benzonitrile]", "pEC50": 7.77},
      {"smiles": "N#Cc1ccc(Oc2ccc(/C=C3\\SC(NCCN4CCNC(=O)C4)=NC3=O)cc2F)c(C(F)(F)F)c1", "note": "[Example 99, 4-(2-Fluoro-4-{4-oxo-2-[2-(3-oxo-piperazin-1-yl)-ethylamino]-4H-thiazol-5-ylidenemethyl}-phenoxy)-3-trifluoromethyl-benzonitrile]", "pEC50": 7.74},
      {"smiles": "N#Cc1ccc(Oc2ccc(/C=C3\\SC(NCCCN4CCNC(=O)C4)=NC3=O)cc2F)c(C(F)(F)F)c1", "note": "[Example 100, 4-(2-Fluoro-4-{4-oxo-2-[3-(3-oxo-piperazin-1-yl)-propylamino]-4H-thiazol-5-ylidenemethyl}-phenoxy)-3-trifluoromethyl-benzonitrile]", "pEC50": 7.51},
      {"smiles": "COc1cc(/C=C2\\SC(NCCCN3CCNC(=O)C3)=NC2=O)ccc1Oc1ccc(C#N)cc1C(F)(F)F", "note": "[Example 101, 4-(2-Methoxy-4-{4-oxo-2-[3-(3-oxo-piperazin-1-yl)-propylamino]-4H-thiazol-5-ylidenemethyl}-phenoxy)-3-trifluoromethyl-benzonitrile]", "pEC50": 7.96},
      {"smiles": "COc1cc(/C=C2\\SC(N3CCCC(O)C3)=NC2=O)ccc1Oc1ccc(C#N)cc1C(F)(F)F", "note": "(centres unmarked) [Example 102, 4-{4-[2-(3-Hydroxy-piperidin-1-yl)-4-oxo-4H-thiazol-5-ylidenemethyl]-2-methoxy-phenoxy}-3-trifluoromethyl-benzonitrile]", "pEC50": 7.54},
      {"smiles": "N#Cc1ccc(Oc2ccc(/C=C3\\SC(N4CCCC(O)C4)=NC3=O)cc2F)c(C(F)(F)F)c1", "note": "(centres unmarked) [Example 103, 4-{2-Fluoro-4-[2-(3-hydroxy-piperidin-1-yl)-4-oxo-4H-thiazol-5-ylidenemethyl]-phenoxy}-3-trifluoromethyl-benzonitrile]", "pEC50": 7.33},
      {"smiles": "CN1CCN(CCNC2=NC(=O)/C(=C/c3ccc(Oc4ccc(C#N)cc4C(F)(F)F)c(F)c3)S2)CC1", "note": "[Example 104, 4-(2-Fluoro-4-{2-[2-(4-methyl-piperazin-1-yl)-ethylamino]-4-oxo-4H-thiazol-5-ylidenemethyl}-phenoxy)-3-trifluoromethyl-benzonitrile]", "pEC50": 7.66},
      {"smiles": "COc1cc(/C=C2\\SC(NCCN3CCNC(=O)C3)=NC2=O)ccc1Oc1ccc(C#N)cc1C(F)(F)F", "note": "[Example 105, 4-(2-Methoxy-4-{4-oxo-2-[2-(3-oxo-piperazin-1-yl)-ethylamino]-4H-thiazol-5-ylidenemethyl}-phenoxy)-3-trifluoromethyl-benzonitrile]", "pEC50": 8.10},
      {"smiles": "COc1cc(/C=C2\\SC(N3CC(C(=O)O)C3)=NC2=O)ccc1Oc1ccc(C#N)cc1C(F)(F)F", "note": "[Example 106, 1-{5-[4-(4-Cyano-2-trifluoromethyl-phenoxy)-3-methoxy-benzylidene]-4-oxo-4,5-dihydro-thiazol-2-yl}-azetidine-3-carboxylic acid]", "pEC50": 8.52},
      {"smiles": "COc1cc(/C=C2\\SC(NCc3nnn[nH]3)=NC2=O)ccc1Oc1ccc(C#N)cc1C(F)(F)F", "note": "[Example 107, 4-(2-Methoxy-4-{4-oxo-2-[(1H-tetrazol-5-ylmethyl)-amino]-4H-thiazol-5-ylidenemethyl}-phenoxy)-3-trifluoromethyl-benzonitrile]", "pEC50": 8.30},
      {"smiles": "N#Cc1ccc(Oc2ccc(/C=C3\\SC(NCc4nnn[nH]4)=NC3=O)cc2F)c(C(F)(F)F)c1", "note": "[Example 108, 4-(2-Fluoro-4-{4-oxo-2-[(1H-tetrazol-5-ylmethyl)-amino]-4H-thiazol-5-ylidenemethyl}-phenoxy)-3-trifluoromethyl-benzonitrile]", "pEC50": 8.00},
      {"smiles": "COc1cc(/C=C2\\SC(NCCC3CCOCC3)=NC2=O)ccc1Oc1ccc(C#N)cc1C(F)(F)F", "note": "[Example 109, 4-(2-Methoxy-4-{4-oxo-2-[2-(tetrahydro-pyran-4-yl)-ethylamino]-4H-thiazol-5-ylidenemethyl}-phenoxy)-3-trifluoromethyl-benzonitrile]", "pEC50": 8.30},
      {"smiles": "N#Cc1ccc(Oc2ccc(/C=C3\\SC(NCCC4CCOCC4)=NC3=O)cc2F)c(C(F)(F)F)c1", "note": "[Example 110, 4-(2-Fluoro-4-{4-oxo-2-[2-(tetrahydro-pyran-4-yl)-ethylamino]-4H-thiazol-5-ylidenemethyl}-phenoxy)-3-trifluoromethyl-benzonitrile]", "pEC50": 7.59}
    ]}
  ]
}
